Data from patent publication US20070128217A1 (priority 2003, published 2007).

Columns and labels:
[1] = tested on: recombinant human anti-SARS-CoV antibody 03-018; assay type: binding; parameters: Binding of antibody 03-018 to linear peptides of the N protein of SARS-CoV Urbani / Binding of antibody 03-018 to looped/cyclic peptides of the N protein of SARS-CoV Urbani: unit not given here
[2] = tested on: rabbit serum obtained by immunizing a rabbit with the SARS-CoV strain Frankfurt 1; assay type: binding; parameters: Binding of a rabbit serum to linear peptides / Binding of a rabbit serum to looped peptides / Rabbit serum linear peptides / Rabbit serum looped peptides / Binding of a rabbit serum to linear peptides of protein N of SARS-CoV Urbani (Rabbit serum linear peptides) / Binding of a rabbit serum to looped/cyclic peptides of protein N of SARS-CoV Urbani (Rabbit serum looped peptides): unit not given here
[3] = tested on: antibodies in sera from SARS patients (sera 1a, 1b, 2, 6, 37, 62, London, SARS-yellow, SARS-green); assay type: binding, human; parameters: Binding of serum 6 to linear peptides of protein X1 of SARS-CoV Urbani / Binding of serum 37 to linear peptides of protein X1 of SARS-CoV Urbani / Binding of serum 6 to looped/cyclic peptide (PEPSCAN-ELISA) / Binding of serum 37 to looped/cyclic peptide (PEPSCAN-ELISA) / Binding of serum 37 to looped/cyclic peptides of protein X1 of SARS-CoV Urbani / Binding of serum 6 to linear peptides of protein X2 / Binding of serum 37 to linear peptides of protein X2 / Binding of serum 37 to looped/cyclic peptides of protein X2 of SARS-CoV Urbani / Binding of serum 6 to linear peptides of protein M of SARS-CoV Urbani / Binding of serum 37 to linear peptides of protein M of SARS-CoV Urbani / Binding of serum 6 to looped/cyclic peptides of protein M of SARS-CoV Urbani / Binding of serum 37 to looped/cyclic peptides of protein M of SARS-CoV Urbani / Binding of serum 6 to linear peptides of protein X3 of SARS-CoV Urbani / Binding of serum 37 to linear peptides of protein X3 of SARS-CoV Urbani / Binding of serum 37 to looped/cyclic peptides of protein X3 of SARS-CoV Urbani / Binding of serum 6 to linear peptides of protein X4 of SARS-CoV Urbani / Binding of serum 37 to linear peptides of protein X4 of SARS-CoV Urbani / Binding of serum 37 to looped/cyclic peptides of protein X4 of SARS-CoV Urbani / Binding of serum 6 to linear peptides of protein X5 of SARS-CoV Urbani / Binding of serum 37 to linear peptides of protein X5 of SARS-CoV Urbani / Binding of serum 37 to looped/cyclic peptides of protein X5 of SARS-CoV Urbani / Binding of serum 6 to linear peptides of protein N of SARS-CoV Urbani / Binding of serum 37 to linear peptides of protein N of SARS-CoV Urbani / Binding of serum 6 to linear peptide (PEPSCAN-ELISA) / Binding of serum 1a to looped/cyclic peptides of protein N of SARS-CoV Urbani / Binding of serum 1b to looped/cyclic peptides of protein N of SARS-CoV Urbani / Binding of serum 2 to looped/cyclic peptides of protein N of SARS-CoV Urbani / Binding of serum 6 to looped/cyclic peptides of protein N of SARS-CoV Urbani / Binding of serum 37 to looped/cyclic peptides of protein N of SARS-CoV Urbani / Binding of serum 62 to looped/cyclic peptides of protein N of SARS-CoV Urbani / Binding of serum London to looped/cyclic peptides of protein N of SARS-CoV Urbani / Binding of serum SARS-green to looped/cyclic peptides of protein N of SARS-CoV Urbani: unit not given here
[4] = tested on: control sera (pooled serum of ten healthy LUMC hospital workers; commercial negative donor pooled serum from the Dutch bloodbank); assay type: binding, human; parameters: Binding of Control serum LUMC to linear peptides / Binding of Control serum Blood-bank to linear peptides / Binding of Control serum LUMC to looped peptides / Binding of Control Serum Blood-Bank to Looped peptides / Binding of Control serum LUMC to linear peptides of the protein M of SARS-CoV Urbani / Binding of Control serum Blood-bank to linear peptides of the protein M of SARS-CoV Urbani / Binding of Control serum LUMC to looped peptides of the protein M of SARS-CoV Urbani / Binding of Control Serum Blood-Bank to Looped peptides of the protein M of SARS-CoV Urbani: unit not given here

| Sequence | Binding of antibody 03-018 to linear peptides of the N protein of SARS-CoV Urbani [1] | Binding of antibody 03-018 to looped/cyclic peptides of the N protein of SARS-CoV Urbani [1] | Binding of a rabbit serum to linear peptides of protein N of SARS-CoV Urbani (Rabbit serum linear peptides) [2] | Binding of a rabbit serum to looped/cyclic peptides of protein N of SARS-CoV Urbani (Rabbit serum looped peptides) [2] | Binding of serum 1a to linear peptides of protein N of SARS-CoV Urbani [3] | Binding of serum 1a to looped/cyclic peptides of protein N of SARS-CoV Urbani [3] | Binding of serum 1b to linear peptides of protein N of SARS-CoV Urbani [3] | Binding of serum 1b to looped/cyclic peptides of protein N of SARS-CoV Urbani [3] | Binding of serum 2 to linear peptides of protein N of SARS-CoV Urbani [3] | Binding of serum 2 to looped/cyclic peptides of protein N of SARS-CoV Urbani [3] | Binding of serum 6 to linear peptides of protein N of SARS-CoV Urbani [3] | Binding of serum 6 to looped/cyclic peptides of protein N of SARS-CoV Urbani [3] | Binding of serum 37 to linear peptides of protein N of SARS-CoV Urbani [3] | Binding of serum 37 to looped/cyclic peptides of protein N of SARS-CoV Urbani [3] | Binding of serum 62 to linear peptides of protein N of SARS-CoV Urbani [3] | Binding of serum 62 to looped/cyclic peptides of protein N of SARS-CoV Urbani [3] | Binding of serum London to linear peptides of protein N of SARS-CoV Urbani [3] | Binding of serum London to looped/cyclic peptides of protein N of SARS-CoV Urbani [3] | Binding of serum SARS-green to looped/cyclic peptides of protein N of SARS-CoV Urbani [3] | Binding of serum SARS-yellow to looped/cyclic peptides of protein N of SARS-CoV Urbani [3] | further results |
| --- | --- | --- | --- | --- | --- | --- | --- | --- | --- | --- | --- | --- | --- | --- | --- | --- | --- | --- | --- | --- | --- |
| GARPKQRRPQGLPNN | 0.1 | 0.2 | 0.1 | 0.2 | 0.2 | 0.3 | 0.1 | 0.1 | 0.2 | 0.4 | 0.1 | 0.3 | 0.4 | 0.4 | 0.6 | 0.5 | 0.5 | 0.4 | 0.4 | 0.2 | Binding of serum SARS-green to linear peptides of protein N of SARS-CoV Urbani [3]: 0.3; Binding of serum SARS-yellow to linear peptides of protein N of SARS-CoV Urbani [3]: 0.6; Binding of Control Serum Blood-Bank to Looped peptides [4]: 0.5; Binding of Control serum Blood-bank to linear peptides [4]: 0.7; Binding of Control serum LUMC to linear peptides [4]: 0.7; Binding of Control serum LUMC to looped peptides [4]: 0.6 |
| RPQGLPNNTASWFTA | 0.1 | 0.2 | 0.1 | 0.5 | 0.3 | 0.5 | 0.1 | 0.3 | 0.2 | 0.5 | 0.2 | 0.4 | 0.7 | 0.9 | 0.7 | 0.8 | 0.5 | 0.5 | 0.5 | 0.7 | Binding of serum SARS-green to linear peptides of protein N of SARS-CoV Urbani [3]: 0.3; Binding of serum SARS-yellow to linear peptides of protein N of SARS-CoV Urbani [3]: 0.4; Binding of Control Serum Blood-Bank to Looped peptides [4]: 0.9; Binding of Control serum Blood-bank to linear peptides [4]: 0.8; Binding of Control serum LUMC to linear peptides [4]: 0.8; Binding of Control serum LUMC to looped peptides [4]: 0.9 |
| LPYGANKEGIVWVAT | 0.1 | 0.2 | 0.2 | 0.6 | 0.2 | 0.5 | 0.2 | 0.3 | 0.3 | 0.6 | 0.2 | 0.4 | 0.7 | 0.9 | 0.7 | 0.8 | 0.5 | 0.5 | 0.4 | 0.4 | Binding of serum SARS-green to linear peptides of protein N of SARS-CoV Urbani [3]: 0.3; Binding of serum SARS-yellow to linear peptides of protein N of SARS-CoV Urbani [3]: 0.6; Binding of Control Serum Blood-Bank to Looped peptides [4]: 0.5; Binding of Control serum Blood-bank to linear peptides [4]: 0.7; Binding of Control serum LUMC to linear peptides [4]: 0.6; Binding of Control serum LUMC to looped peptides [4]: 0.6 |
| TDYKHWPQIAQFAPS | 0.1 | 0.2 | 0.2 | 0.5 | 0.3 | 0.6 | 0.2 | 0.5 | 0.2 | 0.8 | 0.2 | 0.5 | 0.8 | 0.9 | 0.9 | 1.3 | 0.7 | 0.7 | 0.6 | 0.9 | Binding of serum SARS-green to linear peptides of protein N of SARS-CoV Urbani [3]: 0.4; Binding of serum SARS-yellow to linear peptides of protein N of SARS-CoV Urbani [3]: 0.7; Control Serum Blood-Bank Looped peptides [4]: 1.2; Control serum Blood-bank linear peptides [4]: 0.8; Control serum LUMC linear peptides [4]: 0.8; Control serum LUMC looped peptides [4]: 1.1 |
| PEQTQGNFGDQDLIR | 0.1 | 0.2 | 0.1 | 0.5 | – | 0.4 | – | 0.4 | – | 0.4 | – | 0.2 | – | 0.6 | – | 0.4 | – | 0.4 | 0.4 | 0.6 | Recognition of the peptide by sera of SARS-CoV infected individuals, and form (linear, looped/cyclic) in which it is recognized [3]: recognized in linear form; Binding of Control Serum Blood-Bank to Looped peptides [4]: 0.5; Binding of Control serum Blood-bank to linear peptides [4]: 0.8; Binding of Control serum LUMC to linear peptides [4]: 0.9; Binding of Control serum LUMC to looped peptides [4]: 0.6 |
